The structures appear in SMILES notation.

T1 sequence (P39900 106-470): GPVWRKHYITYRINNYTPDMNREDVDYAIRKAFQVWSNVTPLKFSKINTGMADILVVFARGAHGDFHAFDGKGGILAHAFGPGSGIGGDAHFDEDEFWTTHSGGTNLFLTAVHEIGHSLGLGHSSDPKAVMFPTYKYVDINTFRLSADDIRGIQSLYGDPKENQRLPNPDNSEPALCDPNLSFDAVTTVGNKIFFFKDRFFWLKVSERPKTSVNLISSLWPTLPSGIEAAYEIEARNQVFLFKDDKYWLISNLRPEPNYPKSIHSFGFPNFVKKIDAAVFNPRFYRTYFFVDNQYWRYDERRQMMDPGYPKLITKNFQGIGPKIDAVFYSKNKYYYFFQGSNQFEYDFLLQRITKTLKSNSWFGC

This experiment has as its target T1, human macrophage elastase (HME/hMMP-12) (Homo sapiens, UniProt P39900).
T1 construct: purchased R&D Systems 917-MP
Nature of the experiment: In vitro HME inhibition test (standard or high-sensitivity). It is filed as biochemical. To be noted: in some cases mean values, rounded to two significant figures. On the procedure: The potency of the compounds according to the invention with respect to HME (MMP-12) is determined in an in vitro inhibition test. The HME-mediated amidolytic cleavage of a suitable peptide substrate leads to an increase in fluorescent light therein. The signal intensity of the fluorescent light is directly proportional to the enzyme activity. The active concentration of a test compound at which half the enzyme is inhibited (50% signal intensity of the fluorescent light) is reported as the IC50 value.
In a 384 hole microtiter plate, in a total test volume of 41 μl, the test buffer (0.1 M HEPES pH 7.4, 0.15 M NaCl, 0.03 M CaCl2, 0.004 mM ZnCl2, 0.02 M EDTA, 0.005% Brij®), the enzyme (0.5 nM HME; R&D Systems, 917-MP, autocatalytic activation according to the manufacturer's instructions) and the intramolecularly quenched substrate [5 μM Mca-Pro-Leu-Gly-Leu-Glu-Glu-Ala-Dap(Dnp)-NH2; Bachem, M-2670] are incubated in the absence and presence of the test substance (as a solution in DMSO) at 37° C. for two hours. The fluorescence intensity of the test mixtures is measured (excitation […], emission 393 nm). The IC50 values are ascertained by plotting the fluorescent light intensity against the active ingredient concentration.
In this case, an enzyme concentration ten times lower is used (final concentration, e.g. 0.05 nM) in order to achieve an increased test sensitivity. The incubation period chosen for the test is correspondingly longer (e.g. 16 hours).
In turn, `CCCCCCCOc1ccc2c(C(=O)CC(CCn3nnc4ccccc4c3=O)C(=O)O)coc2c1` (single isomer, unassigned; (+)) [Example 103, (+)-4-[6-(Heptyloxy)-1-benzofur-3-yl]-4-oxo-2-[2-(4-oxo-1,2,3-benzotriazin-3(4H)-yl)ethyl]butanoic acid acid] showed an IC50 of 0.23 nM.
`O=C(CC(CCn1nnc2ccccc2c1=O)C(=O)O)c1coc2cc(OCc3ccccc3)ccc12` (single isomer, unassigned; (+)) [Example 85, (+)-4-[6-(Benzyloxy)-1-benzofur-3-yl]-4-oxo-2-[2-(4-oxo-1,2,3-benzotriazin-3(4H)-yl)ethyl]butanoic acid] yielded an IC50 of 0.38 nM. This IC50 lies about 1.7-fold higher than the previous one.
For the molecule `COc1ccc(CCOc2ccc3oc(C(=O)CC(CCn4nnc5ccccc5c4=O)C(=O)O)cc3c2)cc1` (racemic) [Example 3, (+/−)-4-{5-[2-(4-Methoxyphenyl)ethoxy]-1-benzofur-2-yl}-4-oxo-2-[2-(4-oxo-1,2,3-benzotriazin-3(4H)-yl)ethyl]butanoic acid], inhibition was half-maximal at 4.1 nM (IC50).
For `CCCCCCOc1ccc2cc(C(=O)CC(CCn3nnc4ccccc4c3=O)C(=O)O)oc2c1` (single isomer, unassigned; (+)) [Example 66, (+)-4-[6-(Hexyloxy)-1-benzofur-2-yl]-4-oxo-2-[2-(4-oxo-1,2,3-benzotriazin-3(4H)-yl)ethyl]butanoic acid], the IC50 was 2.4 nM.
For `O=C(CC(CCn1nnc2ccccc2c1=O)C(=O)O)c1cc2cc(OCc3ccc4nonc4c3)ccc2o1` (racemic) [Example 36, (+/−)-4-[5-(2,1,3-Benzoxadiazol-5-ylmethoxy)-1-benzofur-2-yl]-4-oxo-2-[2-(4-oxo-1,2,3-benzotriazin-3(4H)-yl)ethyl]butanoic acid], the concentration for half-maximal inhibition (IC50) was 0.33 nM. This IC50 lies about 7.3-fold lower than the previous one.
Then `O=C(CC(CCn1nnc2ccccc2c1=O)C(=O)O)c1cc2cc(OCc3ccc(F)cc3)ccc2o1` (single isomer, unassigned; (-)) [Example 24, (−)-4-{5-[(4-Fluorobenzyl)oxy]-1-benzofur-2-yl}-4-oxo-2-[2-(4-oxo-1,2,3-benzotriazin-3(4H)-yl)ethyl]butanoic acid], with 210 nM.
For `O=C(CC(CCn1nnc2ccccc2c1=O)C(=O)O)c1cc2cc(OCCCc3cccs3)ccc2o1` (racemic) [Example 46, (+/−)-4-Oxo-2-[2-(4-oxo-1,2,3-benzotriazin-3(4H)-yl)ethyl]-4-{5-[3-(2-thienyl)propoxy]-1-benzofur-2-yl}butanoic acid], the concentration for half-maximal inhibition (IC50) was 1.9 nM.
Take `O=C(CC(CCn1nnc2ccccc2c1=O)C(=O)O)c1cc2cc(OCC3CCCC3)ccc2o1` (racemic) [Example 16, (+/−)-4-[5-(Cyclopentylmethoxy)-1-benzofur-2-yl]-4-oxo-2-[2-(4-oxo-1,2,3-benzotriazin-3(4H)-yl)ethyl]butanoic acid]: the half-maximal inhibitory concentration (IC50) was determined as 24 nM.
For `NC(=O)c1cccc(COc2ccc3c(C(=O)CC(CCn4nnc5ccccc5c4=O)C(=O)O)noc3c2)c1` (racemic) [Example 139, (+/−)-4-{6-[(3-Carbamoylbenzyl)oxy]-1,2-benzoxazol-3-yl}-4-oxo-2-[2-(4-oxo-1,2,3-benzotriazin-3(4H)-yl)ethyl]butanoic acid], 0.58 nM corresponded to half-maximal inhibition (IC50).
Molecule `CCCOc1ccc2c(C(=O)CC(CCn3nnc4ccccc4c3=O)C(=O)O)coc2c1` (single isomer, unassigned; (+)) [Example 88, (+)-4-Oxo-2-[2-(4-oxo-1,2,3-benzotriazin-3(4H)-yl)ethyl]-4-(6-propoxy-1-benzofur-3-yl)butanoic acid] showed a 50% inhibitory concentration (IC50) of 1.1 nM.
With `O=C(CC(CCn1nnc2ccccc2c1=O)C(=O)O)c1cc2ccc(OCC3CCO3)cc2s1` (racemic) [Example 119, (+/−)-4-{6-[Oxetan-2-ylmethoxy]-1-benzothiophen-2-yl}-4-oxo-2-[2-(4-oxo-1-benzotriazin-3(4H)-yl)ethyl]butanoic acid] the figure was 3.7 nM.
